Results from patent US8273773B2 (priority 2008, dated 2012).

Columns and labels:
[1] = target: T1, HCV polymerase (NS5B570n-Con1) (Hepatitis C virus genotype 1b, UniProt Q9WMX2); assay: biochemical; set-up: species or system HCV Con1 strain;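 note: recombinant His-tagged enzyme from E. coli, radiolabeled nucleotide incorporation into acid-insoluble RNA read by scintillation after filtration, no-enzyme background subtracted, activity relative to positive control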
T1 construct: contains a 21 amino acid deletion at the C-terminus relative to the full-length HCV polymerase; 6-histidine (N); made in house; host or cells: E. coli strain BL21(DE) pLysS (pET17b)

[2] = IC50 HCV NS5B RNA Polymerase Assay, values without asterisk, 20 nM NS5B570n-Con1 enzyme, 20 nM cIRES RNA template

Row | SMILES | melting point [°C] | IC50 [1, 2] [nM] | IC50 ([1]; IC50 HCV NS5B RNA Polymerase Assay (values with asterisk), values with asterisk: cIRES RNA template, 3 nM NS5B570n-Con1) [nM]
1 | CC(C)(C)c1cc(/C=C/c2ccc(NS(C)(=O)=O)cc2)cc(-c2ccc[nH]c2=O)c1 [I-141, N-(4-{(E)-2-[3-tert-Butyl-5-(2-oxo-1,2-dihydro-pyridin-3-yl)-phenyl]-vinyl}-phenyl)-methanesulfonamide] | 260 to 262 | 26 | –
2 | CC(C)(C)c1ccc(O)c(-c2ccc[nH]c2=O)c1 [I-2] | 211 to 212 | 3580 | –
3 | CC(C)(C)c1cc(CCc2ccc(NS(C)(=O)=O)cc2)c(N)c(-c2ccc[nH]c2=O)c1 [I-98, N-(4-{2-[2-Amino-5-tert-butyl-3-(2-oxo-1,2-dihydro-pyridin-3-yl)-phenyl]-ethyl}-phenyl)-methanesulfonamide] | 140 to 142 | 7 | –
4 | CC(C)(C)c1cc(Cl)c(O)c(-c2ccc[nH]c2=O)c1 [I-16] | 211.4 to 213.5 | 532 | –
5 | CC(C)(C)c1cc(CCc2ccc(NS(C)(=O)=O)cc2)c(C(N)=O)c(-c2ccc[nH]c2=O)c1 [I-122, 4-tert-Butyl-2-[2-(4-methanesulfonylamino-phenyl)-ethyl]-6-(2-oxo-1,2-dihydro-pyridin-3-yl)-benzamide] | 170 to 172 | 3 | –
6 | COc1c(NC(=O)c2ccc(N)c(F)c2)cc(-c2ccc[nH]c2=O)cc1C(C)(C)C [I-120] | 283 to 285 | 3 | –
7 | CC(C)(C)c1cc(Oc2ccccc2)cc(-c2ccc[nH]c2=O)c1 [I-45, 3-(3-tert-Butyl-5-phenoxy-phenyl)-1H-pyridin-2-one] | 90 to 91 | 786 | –
8 | COc1c(C(=O)Nc2ccc(NS(C)(=O)=O)cc2C)cc(-c2ccc[nH]c2=O)cc1C(C)(C)C [I-69, 3-tert-Butyl-N-(4-methanesulfonylamino-2-methyl-phenyl)-2-methoxy-5-(2-oxo-1,2-dihydro-pyridin-3-yl)-benzamide] | 278 to 280 | 13 | –
9 | CC(C)(C)c1cc(-c2ccc[nH]c2=O)cc(NC(=O)c2ccc(NS(C)(=O)=O)cc2)c1F [I-73, N-[3-tert-Butyl-2-fluoro-5-(2-oxo-1,2-dihydro-pyridin-3-yl)-phenyl]-4-methanesulfonylamino-benzamide] | 286 to 288 | 54 | –
10 | COc1c(NC(=O)c2ccc(NS(C)(=O)=O)cc2)cc(-c2cc(F)c[nH]c2=O)cc1C(C)(C)C [I-81] | 272 to 274 | 22 | –
11 | Cc1cc(-c2ccc[nH]c2=O)cc(C(C)(C)C)c1 [I-3] | 224 to 225 | 525 | –
12 | CC(C)(C)c1cc(-c2ccc[nH]c2=O)ccc1OC(F)F [I-6, 3-(3-tert-Butyl-4-difluoromethoxy-phenyl)-1H-pyridin-2-one] | 174 to 175 | 2570 | –
13 | CC(C)(C)c1cc(CO)c(O)c(-c2ccc[nH]c2=O)c1 [I-10] | 167 to 168 | 1600 | –
14 | CC(=O)Nc1c(CCc2ccc(NS(C)(=O)=O)cc2)cc(C(C)(C)C)cc1-c1ccc[nH]c1=O [I-80, N-[4-tert-Butyl-2-[2-(4-methanesulfonylamino-phenyl)-ethyl]-6-(2-oxo-1,2-dihydro-pyridin-3-yl)-phenyl]-acetamide] | 180 to 182 | 97 | –
15 | COc1c(NC(=O)c2ccc(N)cc2)cc(-c2ccc[nH]c2=O)cc1C(C)(C)C [I-72] | 190 to 193 | 34 | –
16 | COc1c(C(=O)c2ccc(O)cc2)cc(-c2ccc[nH]c2=O)cc1C(C)(C)C [I-55] | 185 to 187 | 59 | –
17 | COc1c(/C=C/c2ccc(NS(C)(=O)=O)cc2C#N)cc(-c2cc(F)c[nH]c2=O)cc1C(C)(C)C [I-151, N-(4-{(E)-2-[3-tert-Butyl-5-(5-fluoro-2-oxo-1,2-dihydro-pyridin-3-yl)-2-methoxy-phenyl]-vinyl}-3-cyano-phenyl)-methanesulfonamide] | 158 to 160 | 5 | –
18 | Cc1cc(C(C)(C)C)cc(-c2ccc[nH]c2=O)c1O [I-11] | 207 to 208.5 | 340 | –
19 | CC(C)(C)c1cc(CCc2ccc(NS(C)(=O)=O)cn2)c(C#N)c(-c2ccc[nH]c2=O)c1 [I-114, N-(6-{2-[5-tert-Butyl-2-cyano-3-(2-oxo-1,2-dihydro-pyridin-3-yl)-phenyl]-ethyl}-pyridin-3-yl)-methanesulfonamide] | 143 to 145 | 15 | –
20 | COc1c(C(=O)c2cc(F)cc(F)c2)cc(-c2ccc[nH]c2=O)cc1C(C)(C)C [I-52] | 197.1 to 198.6 | 143 | –
21 | COc1c(/C=C/c2ccc(NS(C)(=O)=O)cc2)cc(-c2ccc[nH]c2=O)c2c1C(C)(C)CC2 [II-5, N-(4-{(E)-2-[4-Methoxy-3,3-dimethyl-7-(2-oxo-1,2-dihydro-pyridin-3-yl)-indan-5-yl]-vinyl}-phenyl)-methanesulfonamide] | 283 to 286.6 | – | 1
22 | COc1c(C(=O)c2sccc2C)cc(-c2ccc[nH]c2=O)cc1C(C)(C)C [I-57] | 123.3 to 125.5 | 61 | –

Row | SMILES | melting point [°C] | IC50 [1, 2] [nM] | IC50 ([1]; IC50 HCV NS5B RNA Polymerase Assay (values with asterisk), values with asterisk: cIRES RNA template, 3 nM NS5B570n-Con1) [nM]
23 | CC(C)(C)c1cc(CCc2ccc(NS(C)(=O)=O)cc2)cc(-c2cc(F)c[nH]c2=O)c1 [I-94] | 191 to 193 | 10 | –
24 | CC(C)(C)c1cc(CCc2ccc(NS(C)(=O)=O)cc2)c(O)c(-c2ccc[nH]c2=O)c1 [I-51, N-(4-{2-[5-tert-Butyl-2-hydroxy-3-(2-oxo-1,2-dihydro-pyridin-3-yl)-phenyl]-ethyl}-phenyl)-methanesulfonamide] | 96.4 to 135.6 | 10 | –
25 | COc1c(NC(=O)c2ccccc2)cc(-c2ccc[nH]c2=O)cc1C(C)(C)C [I-58] | 212 to 216 | 34 | –
26 | COc1c(CCc2cnc(NS(C)(=O)=O)cn2)cc(-c2ccc[nH]c2=O)cc1C(C)(C)C [I-133] | 282 to 283 | 16 | –
27 | COc1c(CC(C)(C#N)c2ccc(NS(C)(=O)=O)cc2)cc(-c2ccc[nH]c2=O)cc1C(C)(C)C (stereo not shown) [I-196, N-(4-{2-[3-tert-Butyl-2-methoxy-5-(2-oxo-1,2-dihydro-pyridin-3-yl)-phenyl]-1-cyano-1-methyl-ethyl}-phenyl)-methanesulfonamide] | 158 to 160 | 30 | –
28 | Cc1cc(-c2cc(Cl)c[nH]c2=O)cc(C(C)(C)C)c1 [I-8] | 232 to 233 | 1960 | –
29 | COc1ccc(-c2ccc[nH]c2=O)cc1C1(C)CC1 [I-61] | 194 to 195 | 1230 | –
30 | CC(C)(C)c1cc(Cc2ccccc2)cc(-c2ccc[nH]c2=O)c1 [I-46, 3-(3-Benzyl-5-tert-butyl-phenyl)-1H-pyridin-2-one] | 180 to 181 | 534 | –
31 | COc1c(/C=C(\C)c2ccc(NS(C)(=O)=O)cc2)cc(-c2ccc[nH]c2=O)cc1C(C)(C)C [I-139, N-(4-{(E)-2-[3-tert-Butyl-2-methoxy-5-(2-oxo-1,2-dihydro-pyridin-3-yl)-phenyl]-1-methyl-vinyl}-phenyl)-methanesulfonamide] | 292 to 294 | 8 | –
32 | CC(C)(C)c1cc(Br)c(O)c(-c2ccc[nH]c2=O)c1 [I-13] | 243.4 to 246.2 | 360 | –
33 | CC1(C)COc2c(/C=C/c3ccc(NS(C)(=O)=O)cc3)cc(-c3ccc[nH]c3=O)cc21 [II-1, N-(4-{(E)-2-[3,3-Dimethyl-5-(2-oxo-1,2-dihydro-pyridin-3-yl)-2,3-dihydro-benzofuran-7-yl]-vinyl}-phenyl)-methanesulfonamide] | 284 to 286 | 5 | –
34 | COc1c(CCC(=O)O)cc(-c2ccc[nH]c2=O)cc1C(C)(C)C [I-22] | 180.2 to 181.8 | 330 | –
35 | Cc1cc(-c2cc(C)c[nH]c2=O)cc(C(C)(C)C)c1 [I-7] | 212 to 213 | 3260 | –
36 | CNC(=O)Nc1ccc(CCc2cc(-c3ccc[nH]c3=O)cc(C(C)(C)C)c2)cc1 [I-86] | 237 to 239 | 278 | –
37 | CC(=O)Nc1ccc(CCc2cc(-c3ccc[nH]c3=O)cc(C(C)(C)C)c2)cc1 [I-83] | 218 to 220 | 125 | –
38 | CC1(C)COc2c(-c3ccc[nH]c3=O)cc(NC(=O)c3ccc(NS(C)(=O)=O)cc3)cc21 [II-4, N-[3,3-Dimethyl-7-(2-oxo-1,2-dihydro-pyridin-3-yl)-2,3-dihydro-benzofuran-5-yl]-4-methanesulfonylamino-benzamide] | > 300 | 33 | –
39 | COc1c(CCc2cnc(NS(C)(=O)=O)nc2)cc(-c2ccc[nH]c2=O)cc1C(C)(C)C [I-125] | 282 to 283 | 16 | –
40 | COc1c(CCc2ccc(N)cc2)cc(-c2ccc[nH]c2=O)cc1C1(C)CC1 [I-99, 3-[3-[2-(4-amino-phenyl)-ethyl]-4-methoxy-5-(1-methyl-cyclopropyl)-phenyl]-1H-pyridin-2-one] | 209 to 211 | 590 | –
41 | COc1c(C(=O)c2cccc(NS(C)(=O)=O)c2)cc(-c2ccc[nH]c2=O)cc1C(C)(C)C [I-100, N-{3-[3-tert-Butyl-2-methoxy-5-(2-oxo-1,2-dihydro-pyridin-3-yl)-benzoyl]-phenyl}-methanesulfonamide] | 261 to 263 | 16 | –
42 | COc1c(C(=O)c2cccc(CN)c2)cc(-c2ccc[nH]c2=O)cc1C(C)(C)C [I-106] | 110 to 115 | 24 | –
43 | COc1c(C(=O)c2cccc(C(N)=O)c2)cc(-c2ccc[nH]c2=O)cc1C(C)(C)C [I-63] | 150 to 160 | 10 | –
44 | COc1c(C(=O)c2cccc(N)c2)cc(-c2ccc[nH]c2=O)cc1C(C)(C)C [I-59, 3-[3-(3-amino-benzoyl)-5-tert-butyl-4-methoxy-phenyl]-1H-pyridin-2-one] | 145 to 150 | 9 | –
